Reference: patent US20140242606A1, “PROBE FOR iFRET AND USE THEREOF” (KOREA RESEARCH INSTITUTE OF BIOSCIENCE AND BIOTECHNOLOGY, priority 2011, published 2014)

What was measured:
[1] = Fluorescence characterization of fluorescent molecules (excitation and emission wavelengths); type: physicochemical; details: fluorescent molecule, Table 1
Text: 1-Naphthylethylenediamine of Chemical Formula I can be effectively detected by LED (light-emitting diode), and used as a fluorescent probe. In addition, because this compound has an excitation wavelength of 340 nm to 380 nm and an emission wavelength of 400 nm to 600 nm, it has longer emission wavelength than the known fluorophores, and therefore, it can be detected as a fluorescent molecule distinct from the cellular autofluorescence.
The excitation and emission wavelengths of the fluorescent molecules of the present invention, that is, the compounds represented by Chemical Formulae I to XXII are described in Table 1, and graphs showing the fluorescent characteristics thereof are given in FIGS. 3 to 15.

[2] = value used for calculation; cited from earlier work
[3] = Fluorescence of the iFRET probe alone; type: physicochemical; details: for fluorescence emission wavelength of probe alone: excitation / UV irradiation at 280 nm
Text: After excitation at 260, 280, 340, and 360 nm, the emitted fluorescence spectra were examined. […]
(§1) As in FIG. 23 showing the result of using the compound of Chemical Formula XXV as a probe for iFRET, the probe itself emitted low fluorescence (blue line) at 430 nm by UV irradiation at 280 nm; the protein (streptavidin) emitted fluorescence (green line) at 340 nm by UV irradiation at 280 nm.
As in FIG. 24 showing the result of using the compound of Chemical Formula XXVI as a fluorescent probe, the probe itself emitted low fluorescence (blue line) at 460 nm by UV irradiation at 280 nm; the protein (streptavidin) emitted fluorescence (green line) at 340 nm by UV irradiation at 280. […] Further, it was confirmed that the fluorescence increasing rate at the above emission wavelength was 600% or more, indicating production of effective iFRET signals. […]

streptavidin [4] = target: T1, streptavidin (Streptomyces avidinii, UniProt P22629); experiment: iFRET detection of streptavidin with biotin-conjugated probes; type: binding; details: UV irradiation at 280 nm
T1 sequence (P22629 25-183): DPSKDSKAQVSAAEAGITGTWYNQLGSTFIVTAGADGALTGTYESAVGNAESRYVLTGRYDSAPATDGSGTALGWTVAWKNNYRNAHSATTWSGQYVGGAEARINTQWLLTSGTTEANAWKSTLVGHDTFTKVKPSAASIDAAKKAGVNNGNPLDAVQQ
Text: The results of detecting streptavidin using Compounds of Chemical Formulae XXV to XXVIII as probes for iFRET are shown in FIGS. 23 to 26.
as §1
As in FIG. 24 showing the result of using the compound of Chemical Formula XXVI as a fluorescent probe, the probe itself emitted low fluorescence (blue line) at 460 nm by UV irradiation at 280 nm; the protein (streptavidin) emitted fluorescence (green line) at 340 nm by UV irradiation at 280. […] Further, it was confirmed that the fluorescence increasing rate at the above emission wavelength was 600% or more, indicating production of effective iFRET signals.
Because the compound of Chemical Formula XXVII emitted fluorescence at the longer wavelength than the known iFRET probe, signal-to-noise ratio is […] during real-time cell imaging, thereby providing more clear images.
In order to examine target specificity of the probe having Chemical Formula XXVIII, the probe was exposed to BSA to examine whether iFRET signals were produced by binding of the probe to BSA. […] Therefore, it was confirmed that the biotin-conjugated iFRET fluorescent probe of the present invention selectively binds to streptavidin to produce iFRET signals.

[5] = Quantum yield measurement; type: physicochemical; details: 0.1 M pH 10.0 phosphate buffer, standard 4-methyl-umbelliferone
Method: (§2) The quantum yield of each compound was measured in 0.1 M pH 10.0 phosphate buffer. 4-methyl-umbelliferone (ΦF 0.63) was used as a standard material, tryptophan (ΦF=0.12) was used as an FRET donor to calculate the quantum yield. FRET efficiency was calculated based on the results measured in PBS buffer at pH 7.4, and fluorescence was measured using an LS55 fluorescence spectrometer manufactured by Perkin Elmer.

streptavidin [6] = target: T1, streptavidin; experiment: FRET efficiency and Forster distance of biotin-conjugated probes; type: binding; details: between iFRET probe and streptavidin
Method: as §2

active caspase = target: T2, active caspase (Homo sapiens, UniProt P42574); experiment: iFRET detection of caspase-3 with probe XXIII; type: binding; details: mixture of probe and active caspase, excitation at 280 nm, versus caspase or probe alone
T2 sequence (P42574 29-175 limits assumed): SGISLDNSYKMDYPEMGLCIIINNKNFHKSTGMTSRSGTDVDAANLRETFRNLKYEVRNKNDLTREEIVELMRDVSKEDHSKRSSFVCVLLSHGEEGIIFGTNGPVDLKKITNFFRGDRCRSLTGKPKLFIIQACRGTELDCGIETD
T2 sequence (P42574 176-277 limits assumed): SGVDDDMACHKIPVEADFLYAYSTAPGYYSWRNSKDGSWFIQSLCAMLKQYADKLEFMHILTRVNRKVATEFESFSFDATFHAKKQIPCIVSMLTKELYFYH
Text: <Detection of Caspase-3 Protein and Test of its Activity Using iFRET Probe of Chemical Formula XXIII>
Chemical Formula XXIII and caspase protein were used to detect iFRET signals.

inactive caspase = experiment: iFRET control with inactive caspase; type: binding; details: inactive caspase and probe excited at 280 nm

SMILES | Emission wavelength (nm) [1] | Excitation wavelength (nm) [1] | further results
CN(C)c1ccc2c(CC(=O)O)cc(=O)oc2c1 [Chemical Formula XXI, 2-(7-(dimethylamino)-2-oxo-2H-chromen-4-yl)acetic acid] | 480 nm | 370 nm | 
N[C@@H](Cc1c[nH]c2ccccc12)C(=O)O [tryptophan] |  |  | quantum yield ΦF of standard material / FRET donor [2]: 0.12
COC(=O)C1=C(C)N(Cc2ccccc2)C=CC1(C)C [Chemical Formula V, methyl 1-benzyl-2,4,4-trimethyl-1,4-dihydropyridine-3-carboxylate] | 430 nm | 330 nm | 
COC(=O)C1=CN(C)C=CC1(C)C [Chemical Formula II, methyl 1,4,4-trimethyl-1,4-dihydropyridine-3-carboxylate] | 450 nm | 360 nm | 
Cc1ccc2cc(C(=O)O)c(=O)oc2c1 [Chemical Formula XIII] | 450 nm | 400 nm | 
O=C(O)/C=C/c1cc2ccc(O)cc2oc1=O [Chemical Formula IX, 3-(7-hydroxy-2-oxo-2H-chromen-3-yl)acrylic acid] | 480 nm | 370-380 nm | 
CC(C)(C)OC(=O)NCCNC(=O)/C=C/c1cc2ccc(O)cc2oc1=O [Chemical Formula XI, tert-butyl 2-(3-(7-hydroxy-2-oxo-2H-chromen-3-yl)acrylamido)ethylcarbamate] | 480 nm | 380-420 nm | 
COC(=O)CCC(NC(=O)C(CC(=O)OC)NC(=O)CCC(=O)NCCNc1cccc2ccccc12)C(=O)N[C@@H](C(=O)NC(CC(=O)OC)C(=O)C(F)(F)F)C(C)C (stereo partly drawn) [Chemical Formula XXXII, N-(1-naphthyl)ethyleneamide-4-butaneamide-Asp(CO2Me)-L-Glu(CO2Me)-L-Val-Asp(CO2Me)-(ketone)-CF3] |  |  | fluorescence emission wavelength of probe [3]: 430 nm
O=C(CCCC[C@@H]1SC[C@@H]2NC(=O)N[C@@H]21)NCCNc1cccc2ccccc12 [Chemical Formula XXV, N-biotinyl N′-(1-naphthyl)ethylenediamine] |  |  | fluorescence / iFRET signal of mixture of probe and streptavidin (streptavidin [4]): increased fluorescence at 430 nm; Quantum yield (ΦF) [5]: 0.7; R0 (Fōrster distance) (streptavidin [6]): 1.837 nm; fluorescence emission wavelength of probe alone [3]: 430 nm
CCN(CC)c1ccc2cc(C(=O)n3ccnc3)c(=O)oc2c1 [Chemical Formula XVIII] | 470 nm | 400 nm | 
COc1ccc2cc(C(=O)O)c(=O)oc2c1 [Chemical Formula XVI] | 390 nm | 330 nm | 
COC(=O)CC1C(C(=O)OC)=CN(C)C=C1C(=O)OC [Chemical Formula VIII, dimethyl 4-(2-methoxy-2-oxoethyl)-1-methyl-1,4-dihydropyridine-3,5-dicarboxylate] | 450 nm | 370 nm | 
O=C(CCCCC1SCC2NC(=O)NC21)NCCNC(=O)Cc1cc(=O)oc2cc(O)ccc12 (centres unmarked) [Chemical Formula XXVI, N-(7-hydroxycoumarin-4-acetyl)-N′-(biotinyl)ethylenediamine] |  |  | fluorescence / iFRET signal of mixture of probe and streptavidin (streptavidin [4]): increased fluorescence at 460 nm; fluorescence increasing rate at emission wavelength 460 nm (streptavidin [4]; mixture of probe and streptavidin): ≥ 600%; Quantum yield (ΦF) [5]: 0.7; R0 (Fōrster distance) (streptavidin [6]): 1.675 nm; fluorescence emission wavelength of probe alone [3]: 460 nm
Cc1cc(=O)oc2cc(O)ccc12 [Chemical Formula XIV] | 450 nm | 370 nm | 
COC(=O)C1=CN(C)C=C(C(=O)OC)C1C=C(C)C [Chemical Formula VI, dimethyl 1-methyl-4-(2-methyl-1-propenyl)-1,4-dihydropyridine-3,5-dicarboxylate] | 450 nm | 390 nm | 
CC(C)[C@H](NC(=O)[C@H](CCC(=O)O)NC(=O)[C@H](CC(=O)O)NC(=O)CCC(=O)NCCNc1cccc2ccccc12)C(=O)N[C@H](C=O)CC(=O)O [Chemical Formula XXIII] |  |  | increase of fluorescence at 445 nm (active caspase): approximately 300%; iFRET signals (inactive caspase): no iFRET signals were observed; fluorescence emission wavelength of probe alone [3]: approximately 445 nm
CN(C)c1cccc2c(S(=O)(=O)Cl)cccc12 [Chemical Formula XIX] | 520 nm | 340 nm | 
Cc1cc(=O)oc2cc(O)ccc12 [4-methyl-umbelliferone] |  |  | quantum yield ΦF of standard material / FRET donor [2]: 0.63
CC(C)(C)OC(=O)Nc1ccc2cc(/C=C/C(=O)O)ccc2c1 [Chemical Formula XV] | 450 nm | 330 nm | 
COC(=O)C1=CN(C)C=C(C(=O)O)C1 [Chemical Formula IV, 5-(methoxycarbonyl)-1-methyl-1,4-dihydropyridine-3-carboxylic acid] | 480 nm | 390-400 nm | 
CCOC(=O)Cc1cc(=O)oc2cc(N(CC)CC)ccc12 [Chemical Formula XXII, ethyl 2-(7-(diethylamino)-2-oxo-2H-chromen-4-yl)acetate] | 450 nm | 370 nm | 
COC(=O)C1=CN(C)C=C(C(=O)O)C1C=C(C)C (centres unmarked) [Chemical Formula VII, 5-(methoxycarbonyl)-1-methyl-4-(2-methyl-1-propenyl)-1,4-dihydropyridine-3-carboxylic acid] | 450 nm | 380 nm | 
CCOC(=O)Cc1cc(=O)oc2cc(N(C)C)ccc12 [Chemical Formula XX, ethyl 2-(7-(dimethylamino)-2-oxo-2H-chromen-4-yl)acetate] | 490 nm | 370 nm | 
O=C(/C=C/c1cc2ccc(O)cc2oc1=O)NCCNC(=O)CCCC[C@@H]1SC[C@@H]2NC(=O)N[C@@H]21 [Chemical Formula XXVII, N-((E)-7-hydroxycoumarin-3-acryl)-N′-(biotinyl)ethylenediamide] |  |  | fluorescence / iFRET signal of mixture of probe and streptavidin (streptavidin [4]): increased fluorescence at 480 nm; Quantum yield (ΦF) [5]: 0.105; R0 (Fōrster distance) (streptavidin [6]): 2.161 nm
COC(=O)/C=C/c1cc2ccc(O)cc2oc1=O [Chemical Formula X, methyl 3-(7-hydroxy-2-oxo-2H-chromen-3-yl)acrylate] | 510 nm | 430 nm | 
NCCNc1cccc2ccccc12 [Chemical Formula I, 1-naphthylethylenediamine] | 430 nm | 340 nm | 
